Laboratory results from patent EP2832344A1, “COMPOSITION, AND EXTERNAL PREPARATION FOR THE SKIN OR FUNCTIONAL FOOD EACH CONTAINING SAID COMPOSITION” (FUJI-FILM Corporation, priority 2012, dated 2013).

Columns and labels:
[1] = Storage stability of hydroxystilbenes (residual amount by HPLC); assay type: physicochemical; details: for remaining at 1032 h: pH 8, left 43 days at room temperature, sample with PEG-60 hydrogenated castor oil in citric acid buffer solution, HPLC
Procedure: Various hydroxystilbenes shown in the following Table 1 were dissolved in ethanol, thereby preparing a 1% solution. The solution was stirred together with PEG-60 hydrogenated castor oil which was in an amount 10 times the amount of the solution with respect to 1 part of the ethanol solution. Thereafter, the resultant was diluted by 100-fold with a citric acid buffer solution, thereby preparing a sample.
pH of the sample prepared as above was regulated to be 8, and the sample was left as is for a month and a half (43 days) at room temperature. Thereafter, by means of HPLC, a residual amount of various hydroxystilbenes in each sample was determined. Analysis conditions for HPLC are as follows.
• Column: C18 5 µm, 4.6 mm x 250 mm • Flow rate: 1 ml/min • Column temperature: 40°C • Detection wavelength: 310 nm • Developing solution: acetonitrile/water = 20/80 (volume ratio, containing 0.1% by volume of acetic acid and 0.1% by volume of triethanolamine) [Table 1]

NF-κB = NF-κB intranuclear transition in UVB-irradiated dermal fibroblasts (Western blotting); assay type: cell-based; details: Homo sapiens, light or radiation study; HDF cells, UVB (20 mJ) irradiated, 6 hours; pterostilbene 5 ppm, no carotenoid; not irradiated = 100 %, irradiated without additive = 684%; read-out: Ratio of amount of NF-κB moving into nucleus
From the text: NFκB is considered to be involved in skin aging at an early stage. Therefore, an NFκB intranuclear transition inhibition rate of carotenoid and pterostilbene was examined.
Normal human dermal fibroblasts (HDF cells, KURABO INDUSTRIES LTD.) were subcultured three times according to a common method, in a GlutaMax medium (D-MEM, Gibco) supplemented with 10% fetal bovine serum (FBS, Gibco). The subcultured HDF cells were caused to adhere to a container at 1,000,000 cells/25 cm^2 and put in a serum starvation state for a day. Thereafter, the HDF cells were washed with phosphate buffered saline (PBS).
The cells were irradiated with UVB (20 mJ) emitted from right above the cells, and then the medium was replaced with a medium obtained by adding 0.1% FBS to D-MEM containing the carotenoid and the pterostilbene shown in Tables 6 and 7.
6 hours after the replacement of the medium, nuclei were extracted using NucBuster (Novagen), and the amount of NF-κB moved into the nuclei was determined by Western blotting (WB) (primary antibody: NF-κB p65 Rabbit Monoclonal Antibody (Cat. #1546-1), EPITOMICS).
Moreover, in Experiment 1 and Experiment 7, for comparison, the cells were not irradiated with UVB.

Row | Structure (SMILES) | remaining at 1032 h [1] | activity at 5 ppm (NF-κB) | Residual amount (%) ([1]; citric acid buffer, 1032 h, pH 8)
1 | COc1cc(/C=C/c2cc(O)cc(O)c2)ccc1O [(E)-3,4',5-trihydroxy-3'-methoxystilbene] | 46% |  | 
2 | Oc1cc(O)cc(/C=C/c2ccc(O)c(O)c2)c1 [Piceatannol] | 26% |  | 
3 | COc1cc(/C=C/c2ccc(O)cc2)cc(OC)c1 [Pterostilbene, trans-1-(3,5-Diemthoxyphenyl)-2-(4-hydroxyphenyl)ethylene] | 99% | 420% | 
4 | Oc1ccc(C=Cc2cc(O)cc(O)c2)cc1 [Resveratrol] | 54% |  | 
5 | O=C(O)C1OC(Oc2ccc(C=Cc3cc(O)cc(O)c3)cc2)C(O)C(O)C1O [trans-resveratol 4'-O-beta-D-glucuronide] |  |  | 73%
